Like-named read-outs stand apart in the source and are kept apart here.
Key:
[1] = test system: galactitol accumulation in the tissues of the lens, sciatic nerve, and diaphragm; assay: Galactosemic rats: lowering of dulcitol (galactitol) accumulation in lens, sciatic nerve and diaphragm; type: in vivo, Male Sprague-Dawley rats; conditions: for % Lowering dulcitol accumulation IN VIVO, D: diaphragm
Description: Such experiments are exemplified hereinbelow after the listing of the following general comments pertaining to these experiments:
Male Sprague-Dawley rats, weighing approximately 90 grams were separated into groups of equal average body weight, with six animals per group. The animals were housed in cages of six animals each and maintained on 12 hour night/12 hour day cycles. Except as otherwise noted, the animals were given food and water ad libitum.
On day 1, the galactosemic control group and all drug-treated groups were given access to 20% galactose chow (Bio-Serv, Frenchtown, N.J.). Animals in the control group were given access to 20% glucose chow (Bio-Serv). Test compounds were administered either in the diet or by gavage as a suspension in 2% Tween 80 in saline. In experiments in which gavage dosing was used, the animals were administered the test compound daily at approximately the same hour each day. Food intake and body weight were determined twice during the course of the experiment. In cases in which the compound was administered in the diet, the average dose was calculated on the basis of the actual average food intake during the experiment.
On the morning of day 5, all animals were fasted; beginning two hours later the animals were decapitated and the lenses, sciatic nerves, and a 50-100 mg portion of the diaphragm were removed, weighed, and frozen in porcelain plates on dry ice.
Only two minor reagent changes were made: (a) the rinsing mixture was an aqueous 5% (w/v) trichloroacetic acid solution and (b) the stock solution was prepared by dissolving 25 mg of dulcitol in 100 mL of an aqueous trichloroacetic acid solution [N.B.: For each experiment the average value found in the tissue from rats fed the glucose diet was subtracted from the individual values found in the corresponding tissue in galactose-fed rats to obtain the amount of polyol accumulated.]
The figures under L, N and D represent the percentage decrease of galactitol accumulation in the tissues of the lens, sciatic nerve, and diaphragm, respectively for treated rats as compared to untreated rats.

aldose reductase [2] = molecular target: T1, aldose reductase (Bos taurus, UniProt P16116); assay: In vitro aldose reductase inhibition (modified Hayman and Kinoshita procedure; enzyme from bovine lens); type: biochemical; conditions: for inhibition at 10 µM: read-out: % Inhibition IN VITRO 10^-5 M; for inhibition at 1 µM: read-out: % Inhibition IN VITRO 10^-6 M; for inhibition at 0.1 µM: read-out: % Inhibition IN VITRO 10^-7 M
T1 construct: preparation of the enzyme from bovine lens; from tissue; host or cells: bovine lens
Description: In the present case the procedure of Hayman and Kinoshita was modified in that the final chromatography step was omitted in the preparation of the enzyme from bovine lens.

aldose reductase [3] = conditions: reported by K. Sestanj et al., U.S. Pat. No. 4,568,693; cited from earlier work
[4] = 20% galactose diet, mg/kg by Example: 1:90, 2:128, 3:141, 4:93, 5:121, 6:110, 7:123, 8:87, 9:92, 10:102, 11:71, 12:84, 13:93, 14:112, 16:100, 17:100, 18:128, 19:117, 20:140, 21:103, 22:151, tolrestat:6
[5] = lens, 20% galactose diet, mg/kg by Example: 1:90, 2:128, 3:141, 4:93, 5:121, 6:110, 7:123, 8:87, 9:92, 10:102, 11:71, 12:84, 13:93, 14:112, 16:100, 17:100, 18:128, 19:117, 20:140, 21:103, 22:151, tolrestat:6

| Structure (SMILES) | inhibition at 10 µM (aldose reductase [2]) [%] | inhibition at 1 µM (aldose reductase [2]) [%] | inhibition at 0.1 µM (aldose reductase [2]) [%] | % Lowering dulcitol accumulation IN VIVO, L [1] | % Lowering dulcitol accumulation IN VIVO, D [1, 4] | % Lowering dulcitol accumulation IN VIVO, L [1, 5] | % Lowering dulcitol accumulation IN VIVO, D ([1]; 98 mg/kg) | % Lowering dulcitol accumulation IN VIVO, D ([1]; 196 mg/kg) | % Lowering dulcitol accumulation IN VIVO, L ([1]; lens, 98 mg/kg) | % Lowering dulcitol accumulation IN VIVO, L ([1]; lens, 196 mg/kg) | inhibitor of aldose reductase (in words) (aldose reductase [3]) |
| --- | --- | --- | --- | --- | --- | --- | --- | --- | --- | --- | --- |
| CSc1nc(C2CCCCC2)n(CC(=O)O)c(=O)c1C#N [Example 1, 5-Cyano-2-cyclohexyl-1,6-dihydro-4-(methylthio)-6-oxo-1-pyrimidineacetic Acid] | – | – | – | N.S. | 42% | – | – | – | – | – | – |
| N#Cc1c(SCc2ccccc2)nc(C2CCCCC2)n(CC(=O)O)c1=O [Example 2] | 97 | 96 | 91 | – | N.S. | N.S. | – | – | – | – | – |
| N#Cc1c(SCc2ccc(Br)cc2)nc(C2CCCCC2)n(CC(=O)O)c1=O [Example 3] | 96 | 96 | 93 | – | N.S. | N.S. | – | – | – | – | – |
| N#Cc1c(SCc2ccc(Br)cc2F)nc(C2CCCCC2)n(CC(=O)O)c1=O [Example 4, 4-[[(4-bromo-2-fluorophenyl)methyl]thio]-5-cyano-2-cyclohexyl-1,6-dihydro-6-oxo-1-pyrimidineacetic acid] | – | – | – | – | N.S. | 15% | – | – | – | – | – |
| CCCCCCSc1nc(C2CCCCC2)n(CC(=O)O)c(=O)c1C#N [Example 5] | 94 | 95 | 96 | – | N.S. | N.S. | – | – | – | – | – |
| CC(C)Sc1nc(C2CCCCC2)n(CC(=O)O)c(=O)c1C#N [Example 6] | 93 | 92 | 90 | – | N.S. | N.S. | – | – | – | – | – |
| N#Cc1c(SCC2CCCCC2)nc(C2CCCCC2)n(CC(=O)O)c1=O [Example 7] | 96 | 95 | 90 | – | N.S. | N.S. | – | – | – | – | – |
| CSc1nc(C(C)C)n(CC(=O)O)c(=O)c1C#N [Example 8] | 96 | 96 | 94 | – | N.S. | N.S. | – | – | – | – | – |
| CC(C)Sc1nc(C(C)C)n(CC(=O)O)c(=O)c1C#N [Example 9] | 96 | 97 | 91 | – | 16% | N.S. | – | – | – | – | – |
| CSc1nc(C)n(CC(=O)O)c(=O)c1C#N [Example 11, 5-Cyano-1,6-dihydro-2-methyl-4-(methylthio)-6-oxo-1-pyrimidineacetic Acid] | 86 | 84 | 74 | – | N.S. | N.S. | – | – | – | – | – |
| Cc1nc(NCc2cccnc2)c(C#N)c(=O)n1CC(=O)O [Example 12, 5-Cyano-1,6-dihydro-2-methyl-6-oxo-4-[(3-pyridinylmethyl)amino]-1-pyrimidineacetic Acid] | 88 | 90 | 30 | – | N.S. | N.S. | – | – | – | – | – |
| Cc1nc(N2CCCCC2)c(C#N)c(=O)n1CC(=O)O [Example 13] | 88 | 75 | 52 | – | N.S. | N.S. | – | – | – | – | – |
| Cc1nc(N2CCN(Cc3ccccc3)CC2)c(C#N)c(=O)n1CC(=O)O [Example 14] | 92 | 89 | 64 | – | N.S. | N.S. | – | – | – | – | – |
| Cc1nc(NCC2CCCCC2)c(C#N)c(=O)n1CC(=O)O [Example 16] | 93 | 91 | 72 | – | N.S. | N.S. | – | – | – | – | – |
| COc1ccc2c(C(=S)N(C)CC(=O)O)cccc2c1C(F)(F)F [tolrestat, N-[[6-methoxy-5-(trifluoromethyl)-1-naphthalenyl]-thioxomethyl]-N-methylglycine, reference compound] | – | – | – | – | 90% | N.S. | – | – | – | – | effective inhibitor of aldose reductase |

Continued, in another order:

| inhibition at 10 µM (aldose reductase [2]) [%] | inhibition at 1 µM (aldose reductase [2]) [%] | inhibition at 0.1 µM (aldose reductase [2]) [%] | Structure (SMILES) | % Lowering dulcitol accumulation IN VIVO, L [1] | % Lowering dulcitol accumulation IN VIVO, D [1, 4] | % Lowering dulcitol accumulation IN VIVO, L [1, 5] | % Lowering dulcitol accumulation IN VIVO, D ([1]; 98 mg/kg) | % Lowering dulcitol accumulation IN VIVO, D ([1]; 196 mg/kg) | % Lowering dulcitol accumulation IN VIVO, L ([1]; lens, 98 mg/kg) | % Lowering dulcitol accumulation IN VIVO, L ([1]; lens, 196 mg/kg) | inhibitor of aldose reductase (in words) (aldose reductase [3]) |
| --- | --- | --- | --- | --- | --- | --- | --- | --- | --- | --- | --- |
| 96 | 98 | 94 | CC(C)c1nc(SCc2ccccc2)c(C#N)c(=O)n1CC(=O)O [Example 10] | – | 38% | N.S. | – | – | – | – | – |
| 89 | 88 | 71 | Cc1nc(NCCc2ccccc2)c(C#N)c(=O)n1CC(=O)O [Example 15] | – | – | – | N.S. | N.S. | N.S. | N.S. | – |
| 96 | 90 | 78 | Cc1nc(NCc2ccccc2)c(C#N)c(=O)n1CC(=O)O [Example 17] | – | N.S. | N.S. | – | – | – | – | – |
| 90 | 88 | 81 | Cc1nc(N2CCC(Cc3ccccc3)CC2)c(C#N)c(=O)n1CC(=O)O [Example 18] | – | N.S. | N.S. | – | – | – | – | – |
| 84 | 68 | 29 | N#Cc1c(-c2ccccc2)nc(-c2cccc3ccccc23)n(CC(=O)O)c1=O [Example 19] | – | 21% | N.S. | – | – | – | – | – |
| 82 | 71 | 22 | N#Cc1c(-c2ccccc2)nc(-c2cccc3c(Br)cccc23)n(CC(=O)O)c1=O [Example 20, 5-Cyano-1,6-dihydro-2-(5-bromo-1-naphthalenyl)-6-oxo-4-phenyl-1-pyrimidineacetic Acid] | – | N.S. | N.S. | – | – | – | – | – |
| 87 | 55 | 14 | Cc1nc(-c2cccc3ccccc23)n(CC(=O)O)c(=O)c1C#N [Example 21, 5-cyano-1,6-dihydro-4-methyl-2-(1-naphthalenyl)-6-oxo-1-pyrimidineacetic acid] | – | N.S. | 18% | – | – | – | – | – |
| 93 | 85 | 46 | N#Cc1c(Cc2cccc3ccccc23)nc(-c2cccc3c(Br)cccc23)n(CC(=O)O)c1=O [Example 22] | – | N.S. | N.S. | – | – | – | – | – |
